Test results reported in patent US10023562B2, “Heteroaryl substituted pyridyl compounds useful as kinase modulators” (BRISTOL-MYERS SQUIBB COMPANY, priority 2012, dated 2018).
Where two headings read alike, the source gives them in different places.

Tests used:
[1] = tested on: TLR2 induced IL-6 in peripheral blood mononuclear cells (PBMCs); assay: PBMC TLR2 Induced IL-6 Assay; assay type: cell-based; conditions: 10 μg/ml lipoteichoic acid for 5 hours, IL-6 by ELISA; for EC50: values marked * are EC50, read-out: Cell EC50 (values marked *); for IC50: values without asterisk, read-out: Cell IC50
Method: PBMC TLR2 Induced IL-6 Assay Peripheral blood mononuclear cells (PBMCs) were isolated from human blood containing the anti-coagulant EDTA (2.5 mM) by centrifugation over a FICOLL® gradient. […] At the end of the culture, plates were centrifuged at 1800 rpm for 10 minutes to pellet the cells. Supernatants were harvested and analyzed for IL-6 levels by ELISA (BD Biosciences, San Jose, Calif.).

IRAK4 = IRAK4 (Homo sapiens (Human), UniProt Q9NWZ3); assay: IRAK4 Inhibition Assay; assay type: biochemical; conditions: ATP 500 μM; IRAK4 0.6 nM; 60 min at room temperature
Method: IRAK4 Inhibition Assay The assays were performed in U-bottom 384-well plates. […] The reaction was initiated by the combination of IRAK4 with substrates and test compounds. The reaction mixture was incubated at room temperature for 60 min. and terminated by adding 45 μL of 35 mM EDTA to each sample. The reaction mixture was analyzed on the Caliper LABCHIP® 3000 (Caliper, Hopkinton, Mass.) by electrophoretic separation of the fluorescent substrate and phosphorylated product.

IRAK4, sequence (Q9NWZ3 whole entry, species assumed): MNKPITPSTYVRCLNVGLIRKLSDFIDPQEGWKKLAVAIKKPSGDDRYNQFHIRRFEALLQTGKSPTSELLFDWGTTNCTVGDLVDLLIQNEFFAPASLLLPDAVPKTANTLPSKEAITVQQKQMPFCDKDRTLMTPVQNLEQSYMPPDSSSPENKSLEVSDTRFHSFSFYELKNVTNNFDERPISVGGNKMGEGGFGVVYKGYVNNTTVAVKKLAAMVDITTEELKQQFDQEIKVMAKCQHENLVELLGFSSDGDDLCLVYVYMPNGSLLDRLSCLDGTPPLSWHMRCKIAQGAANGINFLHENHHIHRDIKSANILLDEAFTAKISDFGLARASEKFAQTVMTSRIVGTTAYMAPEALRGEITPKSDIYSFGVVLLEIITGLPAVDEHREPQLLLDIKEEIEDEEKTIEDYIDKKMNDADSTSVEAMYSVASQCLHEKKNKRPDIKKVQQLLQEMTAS

Structure (SMILES) | EC50 ([1]; Homo sapiens, PBMC, 5 h) [nM] | IC50 ([1]; Homo sapiens, PBMC, 5 h) [nM] | further results
CC(C)(O)[C@H](F)CNC(=O)c1cnc(Nc2ncc(C#N)cc2F)cc1NCC(F)(F)C(C)(C)O [Example 126] | 83 |  | 
CC(=O)N[C@H]1CC[C@H](NC(=O)c2cnc(Nc3ncncc3Cl)cc2NC(C)C)CC1 [Example 106] | 433 |  | 
CC(C)(O)CNc1cc(Nc2ncc(C#N)cc2Cl)ncc1C(=O)NC[C@@H](F)C(C)(C)O [Example 48] |  | 369 | 
CS[C@H]1CC[C@H](NC(=O)c2cnc(Nc3ncc(C#N)cc3F)cc2NC(C)C)CC1 [Example 32, 6-((5-cyano-3-fluoropyridin-2-yl)amino)-4-(isopropylamino)-N-((1R,4R)-4-(methylthio)cyclohexyl)nicotinamide] | 199 |  | 
CC(C)(O)[C@H](F)CNC(=O)c1cnc(Nc2ncc(C#N)cn2)cc1NC1CCC(F)C1 (some centres unmarked) [Example 86] | 349 |  | 
CC(C)(O)[C@H](F)CNC(=O)c1cnc(Nc2ncc(C#N)cc2F)cc1Nc1cccc(S(N)(=O)=O)c1 [Example 128] | 224 |  | 
C[C@@H](CO)Nc1cc(Nc2ncc(C#N)cn2)ncc1C(=O)NC[C@@H](F)C(C)(C)O [Example 101] | 380 |  | 
CC(C)(O)[C@H](F)CNC(=O)c1cnc(Nc2ccc(Cl)cn2)cc1NC1CC1 [Example 81] | 96 |  | 
CC(C)(O)[C@H](F)CNC(=O)c1cnc(Nc2ncc(C#N)cc2Cl)cc1N[C@H]1CC[C@](C)(O)CC1 [Example 150] | 62 |  | 
CC(C)(O)[C@H](F)CNC(=O)c1cnc(Nc2ncc(C#N)cc2Cl)cc1Nc1ccc(-n2cccn2)cc1 [Example 168] | 122 |  | 
CC(C)CCNc1cc(Nc2ncc(C#N)cc2Cl)ncc1C(=O)NC[C@@H](F)C(C)(C)O [Example 140] | 241 |  | 
CC(C)(O)[C@H](F)CNC(=O)c1cnc(Nc2ncc(C#N)cc2F)cc1Nc1ccc(C(N)=O)cc1 [Example 142] | 93 |  | 
COC(=O)N[C@H]1CC[C@H](NC(=O)c2cnc(Nc3ncc(C#N)cc3F)cc2NC(C)C)CC1 [Example 165] | 279 |  | 
CC(C)Nc1cc(Nc2ccc(C#N)cn2)ncc1C(=O)N[C@H]1CC[C@H](C(=O)NC2CC2)CC1 [Example 6, 6-((5-cyanopyridin-2-yl)amino)-N-((1R,4R)-4-(cyclopropylcarbamoyl)cyclohexyl)-4-(isopropylamino)nicotinamide] |  | 648 | 
CC(C)Nc1cc(Nc2ncc(Cl)cc2Cl)ncc1C(=O)NC[C@@H](F)C(C)(C)O [Example 84] | 138 |  | IC50 (IRAK4): 1.5 nM
CC(C)(O)[C@H](F)CNC(=O)c1cnc(Nc2ncc(C#N)cn2)cc1N[C@H]1CCC[C@H]1F [Example 107] | 757 |  | 
CC(C)Nc1cc(Nc2ccncn2)ncc1C(=O)NC[C@@H](F)C(C)(C)O [Example 20, N-((2R)-2-fluoro-3-hydroxy-3-methylbutyl)-4-(isopropylamino)-6-(4-pyrimidinylamino)nicotinamide] |  | 647 | 

Structure (SMILES) | EC50 ([1]; Homo sapiens, PBMC, 5 h) [nM] | IC50 ([1]; Homo sapiens, PBMC, 5 h) [nM] | further results
CC(C)Nc1cc(Nc2ncc(C#N)cc2F)ncc1C(=O)NCCCOC(C)(C)C [Example 127] | 254 |  | 
CC(C)(O)[C@H](F)CNC(=O)c1cnc(Nc2ncc(C#N)cc2F)cc1NC1CCOCC1 [Example 49] |  | 164 | 
CC(C)Nc1cc(Nc2ncc(C#N)cc2F)ncc1C(=O)N[C@H]1CC[C@H](C(=O)NC(C)C)CC1 [Example 116] | 130 |  | 
CC(C)(F)CNc1cc(Nc2ncc(C#N)cc2Cl)ncc1C(=O)NC[C@@H](F)C(C)(C)O [Example 46] | 206 |  | 
CCNc1cc(Nc2ncc(C#N)cn2)ncc1C(=O)NC[C@@H](F)C(C)(C)O [Example 58] |  | 191 | 
CCC(C)Nc1cc(Nc2ncc(C#N)cn2)ncc1C(=O)NC[C@@H](F)C(C)(C)O (some centres unmarked) [Example 99] |  | 475 | 
CC(C)Nc1cc(Nc2ncc(C#N)c(N)n2)ncc1C(=O)NC[C@@H](F)C(C)(C)O [Example 136] | 63 |  | 
CC(C)(O)[C@H](F)CNC(=O)c1cnc(Nc2ncc(C#N)cc2F)cc1NC1CCCOC1 (some centres unmarked) [Example 97] |  | 418 | 
CC(=O)N[C@H](C)CCNC(=O)c1cnc(Nc2ncc(C#N)cc2F)cc1NC(C)C [Example 64] |  | 448 | 
CC(C)(O)[C@H](F)CNC(=O)c1cnc(Nc2ncc(C#N)cn2)cc1NC1CCC(F)C1 (some centres unmarked) [Example 56] |  | 41 | 
CC(C)Nc1cc(Nc2ccc(C#N)cn2)ncc1C(=O)NC[C@@H](F)C(C)(C)O [Example 2, 6-((5-cyano-2-pyridinyl)amino)-N-((2R)-2-fluoro-3-hydroxy-3-methylbutyl)-4-(isopropylamino)nicotinamide] |  | 453 | 
CC(C)(O)[C@H](F)CNC(=O)c1cnc(Nc2ncc(C#N)c(N)n2)cc1NC1CC1 [Example 154] | 529 |  | 
CC(C)(O)[C@H](F)CNC(=O)c1cnc(Nc2ncc(F)cc2F)cc1NC1CC1 [Example 89] | 491 |  | 
CC(C)(O)[C@H](F)CNC(=O)c1cnc(Nc2ncc(C#N)cc2F)cc1NC1CCCOC1 (some centres unmarked) [Example 98] |  |  | IC50 ([1]; human PBMC): 690 nM
CC(C)(O)[C@H](F)CNC(=O)c1cnc(Nc2ncc(C#N)cc2F)cc1Nc1cccc(CO)c1 [Example 122] | 56 |  | 
CC(C)Nc1cc(Nc2ccnc(N)n2)ncc1C(=O)NC[C@@H](F)C(C)(C)O [Example 131] | 137 |  | 
CC(C)Nc1cc(Nc2ccnc(NC3CCCOC3)n2)ncc1C(=O)NC[C@@H](F)C(C)(C)O (stereo partly drawn) [Example 25, N-((2R)-2-fluoro-3-hydroxy-3-methylbutyl)-4-(isopropylamino)-6-((2-(tetrahydro-2H-pyran-3-ylamino)-4-pyrimidinyl)amino)nicotinamide] |  | 372 | 
